{
  "source": "patent US5504097A",
  "about": "“N-hydroxyureas as 5-lipoxygenase inhibitors and inhibitors of oxidative modification of low density lipoprotein” (American Home Products Corporation, priority 1995, dated 1996)",
  "key": {"[1]": {"system": "Lipoxygenase", "experiment": "Ex-Vivo Measurement of Lipoxygenase Inhibition in Orally Dosed Rats (LTB4 in A23187-stimulated blood)", "set-up": "species or system Male Sprague Dawley rats", "settings": "p.o.", "description": "2. Ex-Vivo Measurement of Lipoxygenase Inhibition in Orally Dosed Rats\nAfter an interval of 3 or 6 hours, the rats were anesthetized with metofane (n=4/group) and blood collected in heparinized tubes. White blood cell counts and differentials were made. One ml of blood from each animal was placed in a 5 ml plastic tube in a shaker bath at 37° C. A23187 at a final concentration of 10 μM was added to the blood and the blood vortexed and incubated for 15 min at 37° C. with gentle shaking. Incubation was terminated by vortexing sample and centrifuging immediately at 1200× G for 15 min at 4° C. The plasma was transferred to 15 ml plastic tubes each containing 8 ml of methanol to precipitate protein followed by vortexing. The samples were stored at -70° C. overnight and the next day the samples were centrifuged at 800× G for 15 min to pellet the precipitate. The samples were dried in a Savant SpeedVac Concentrator Model SVC 200H and reconstituted to the original volume with cold RIA or ELISA buffer. The reconstituted samples were stored at -70° C. until assayed. The assay for LTB4 was performed according to the directions of the ^3 H!RIA kit or ELISA kit (Seragen). The total metabolite level in 1 ml of blood is calculated and reported as ng/10^6 neutrophils. Significance is determined by a one-way analysis of variance with LSD comparisons to control (p≤0.05)."}, "[2]": {"system": "LTB4", "experiment": "Reverse Passive Arthus Reaction (pleurisy), LTB4 in pleural exudate", "assay_type": "in vivo, male Lewis rats", "settings": "p.o.", "description": "3. Reverse Passive Arthus Reaction\nA reverse passive Arthus reaction is induced in the pleural cavity of male Lewis rats (150-200 g; fasted overnight prior to use) by the intravenous administration of bovine serum albumin (BSA; 4 mg/0.2 ml) followed 30 minutes later by the injection of rabbit anti-BSA (1 mg/2.0 ml; lyophilized IgG fraction; Organon Teknika, West Chester, Pa.) into the right pleural space under halothane anesthesia. Drugs or vehicle (0.5% Tween-80) control are administered orally in a volume of 1 ml/100 g body weight at 1 hour prior to the anti-BSA. Animals are sacrificed at either the time of peak eicosanoid production (i.e. 5 minutes after anti-BSA for immunoreactive T×B2, 10 minutes for immunoreactive LTB4, 20 minutes for immunoreactive LTC4) or at the time of peak neutrophil infiltration (4 hours after anti-BSA) by CO2 inhalation. The pleural cavity is then exposed, the fluid exudate removed by gentle vacuum aspiration and the volume of exudate is recorded. For the determination of cellular infiltration, the pleural cavity is rinsed with 3 ml of 0.1% EDTA in sterile saline, and the recovered wash is pooled with the exudate. Cell number is determined on a model ZBI Coulter counter. For determination of eicosanoid production, undiluted pleural exudate is microfuged and the supernatant is extracted with ethanol (8-10 times volume). Extracts are either stored at -20° C., or are evaporated to dryness under a stream of N2 and reconstituted in radioimmunoassay (RIA) buffer.\nEicosanoids are quantitated by RIA according to the procedure specified by the RIA kit manufacturer (Advanced Magnetics, Cambridge, MA). Briefly, 100 μl of ^3 H-labeled eicosanoid and 100 μl of specific antibody are sequentially added to 100 μl of extracted pleural exudate in BGG-phosphate buffer which contains 0.01M phosphate, 0.1% bovine gamma globulin and 0.1% sodium azide at pH 7.0. Antibody-bound eicosanoid is separated from unbound eicosanoid by the addition of 750 μl of dextran (0.4%)-coated charcoal (Norit A) containing 0.1% sodium azide. The mixture is centrifuged at 2000 RPM at 5° C. for 15 minutes to pellet the charcoal and adsorbed unbound eicosanoid. Antibody-bound labeled eicosanoid is quantitated by counting in a liquid scintillation counter, and is correlated to concentration by a standard curve."}, "[3]": {"settings": "5 mg/kg, pretreatment period 6 hr"}},
  "data": [
    {"smiles": "Cc1oc(-c2ccccc2)nc1COc1ccc(CN(O)C(N)=O)cc1", "note": "[Example 1, 1-Hydroxy-1-4-(5-methyl-2-phenyl-oxazol-4-ylmethoxy)-benzyl!-urea]", "values": [
      {"measurement": "% Inhibition of LTB4", "setting": "[1]; 10 mg/kg, pretreatment period 3 hr", "result": 84, "unit": "%"},
      {"measurement": "% Inhibition of LTB4", "setting": "[1]; 10 mg/kg, pretreatment period 6 hr", "result": 75, "unit": "%"},
      {"measurement": "% Inhibition of LTB4 Synthesis", "setting": "[2]; 10 mg/kg", "result": 36, "unit": "%"},
      {"measurement": "% Inhibition of LTB4 Synthesis", "setting": "[2]; 25 mg/kg", "result": 69, "unit": "%"}
    ]},
    {"smiles": "Cc1oc(-c2ccc(C(F)(F)F)cc2)nc1COc1ccc(CN(O)C(N)=O)cc1", "note": "[Example 6, 1-Hydroxy-1-4-5-methyl-2-(4-trifluoromethyl-phenyl)-oxazol-4-ylmethoxy!-benzyl!-urea]", "values": [
      {"measurement": "% Inhibition of LTB4", "setting": "[1]; [3]", "result": 70, "unit": "%"},
      {"measurement": "% Inhibition of LTB4 Synthesis", "setting": "[2]; 10 mg/kg", "result": 45, "unit": "%"}
    ]},
    {"smiles": "NC(=O)N(O)Cc1ccc(OCc2coc(-c3ccccc3)n2)cc1", "note": "[Example 9, 1-Hydroxy-1-4-(2-phenyl-oxazol-4-ylmethoxy)-benzyl!-urea]", "values": [
      {"measurement": "% Inhibition of LTB4", "setting": "[1]; [3]", "result": 60, "unit": "%"},
      {"measurement": "% Inhibition of LTB4 Synthesis", "setting": "[2]; 10 mg/kg", "result": 60, "unit": "%"}
    ]},
    {"smiles": "NC(=O)N(O)Cc1ccc(OCc2csc(-c3ccccc3)n2)cc1", "note": "[Example 10, 1-Hydroxy-1-4-(2-phenyl-thiazol-4-ylmethoxy)-benzyl!-urea]", "values": [
      {"measurement": "% Inhibition of LTB4", "setting": "[1]; [3]", "result": 67, "unit": "%"},
      {"measurement": "% Inhibition of LTB4 Synthesis", "setting": "[2]; 10 mg/kg", "result": 99, "unit": "%"}
    ]}
  ]
}
